# Data: patent publication US20240189278A1, “NOVEL COMPOUNDS AND METHODS FOR INCREASING KLOTHO GENE EXPRESSION” (Klotho Therapeutics, Inc., priority 2017, published 2024)
# Tests used:
# DNA methyltransferase = DNA methyltransferase activity in aged mice; type: in vivo, mouse; details: 2 weeks treatment
# Description: (§1) Animal study protocols. This example was performed according to the guide lines of the National Institute of Health on the care and use of laboratory animals and approved by the institutional Animal Care and Use Committee of University of Oklahoma Health Science Center. AU mice were housed in cages at room temperature (2S±PC) and were provided with Purina laboratory chow No 5001) and tap Water and lithium. 6 adult mice (12 months) and 20 old mice (24-26 months) mice were next in this study. The old (aged) mice were randomly divided into three subgroups and each group had 6 or 7 mice. […] The third group received no treatment Blood pressure was measured before and after treatment with the active agent at 1 week and 2 week. Pulse wave velocity (PWV) was measured after 2 weeks treatment with active agent all animals were sacrificed and perfused transcardially with PBS under deep anesthesia (ketamine xylazine, 90/10 mg, IP). […]
# Measurement of DNA Demethylase and DNA Methylation force Activity. The DNA demethylase and DNA methyltransferase activity was measured by using DNA demethylase activity qualification kit (Abeam˜Cambridge, MA) and methyltransferase coloritnetxic assay kit (Cayman Chemical Company, Ann Arbor, Michigan). […] The absorbance was read at […] for DNA methylene activity assay and 510 nm for DNA methyltransferase activity using BioTeck Multi-Mole Microplate Readers.
# Klotho gene = experiment: Methylation analyses of Klotho gene (methylation-specific PCR); type: in vivo, mouse; details: kidney of aged mice, 2 weeks treatment
# Description: (§2) Animal study protocols. This example was performed according to the guide lines of the National Institute of Health on the care and use of laboratory animals and approved by the institutional Animal Care and Use Committee of University of Oklahoma Health Science Center. AU mice were housed in cages at room temperature (2S±PC) and were provided with Purina laboratory chow No 5001) and tap Water and lithium. 6 adult mice (12 months) and 20 old mice (24-26 months) mice were next in this study. The old (aged) mice were randomly divided into three subgroups and each group had 6 or 7 mice. One subgroup received compound H (10 mg/kg/day1, IP, Enamine LLC, Monmouth Jct., NJ) and one group received an equal volume of DMSO (dimethyl sulfoxide, 5%) and served as a control. The third group received no treatment Blood pressure was measured before and after treatment with the active agent at 1 week and 2 week. Pulse wave velocity (PWV) was measured after 2 weeks treatment with active agent all animals were sacrificed and perfused transcardially with PBS under deep anesthesia (ketamine xylazine, 90/10 mg, IP). […]
# Methylation Analyses of Klotho Gene: The methylation status of CpG islands of mice Klotho gene was analyzed using methylation-specific PCR (MSP) and bisulfite sequencing. […] The methylation index was calculated as (band intensity of MSP with methylated primers)/(band intensity of inputted control). […]
# elastin = experiment: Elastin in aortas of aged mice (immunostaining and western blot); type: in vivo, mouse
# Description: as §1
# Histological and Immunohistochemical Staining: Thoracic aortas were quickly excised and placed in cold (4′T) physiological saline solution. […] Aorta rings were post-fixed in 4% paraformaldehyde, embedded in paraffin and sectioned at […] thickness, Collagen was quantified by Masson' s trichrome staining as described previously. […] Blue-stained collagen areas were quantified with ImageJ (NIH, Bethesda, USA) film 4-5 regions per section. […]
# MMP2 = MMP2 activity by zymogram PAGE, aortas of aged mice; type: in vivo, mouse; details: zymography
# Description: as §2
# Measurements for MMP2 and MMP9 Activity. MMP2 and MMP9 activity were measured by Zymogram PAGE (Bio˜-Rad). Briefly Lysates from thoracic aorta were quantified using BCA assay (Pierce) and prepared under non-reducing, non-denaturing conditions. […]
# TGF-β1 = experiment: Western blot of TGF-β1, aortas of aged mice; type: in vivo, mouse
# Description: as §2
# (§3) Western Blot Analysis: Protein samples from the thoracic aorta were prepared in Lysis buffer as described previously. […] Protein abundance on western blots was quantified densitometry using Image lab software (Bio-Rad, Hercules, CA).
# TGF-β3 = experiment: Western blot of TGF-β3, aortas of aged mice; type: in vivo, mouse
# Description: as §2, §3
# RUNX2 = experiment: Western blot of RUNX2, aortas of aged mice; type: in vivo, mouse
# Description: as §2, §3
# LC3 = experiment: Western blot of LC3 in aortas, hearts and kidneys of old mice; type: in vivo, mouse
# [1] = test system: mouse vascular aortic smooth muscle cells (MOVAS); experiment: Western blot of treated MOVAS cells; type: cell-based; details: 10 μM active agent, 16 h
# Description: After cells confluent, the media were switched to DMEM with or without 2° A1 serum, and the cells were then treated with 10 μM active agent or 5 nM secreted Klotho for another 16 h then harvested for western blot analysis.
# Western Blot Analysis: Protein samples from the thoracic aorta were prepared in Lysis buffer as described previously. The proteins ([…] were resolved by SOS-PAGE and transferred to a nitrocellulose membrane (Bio-Rad). The membrane was then incubated overnight (4° C.) with a primary antibody against collagen-1-elastin. M1′v1P2; MMP9, ALP (Abeam1 1:1000), TGF-1, TGF˜N3 (Santa Cmz, 1:100). RUX2, or aNTulmliu (Cell Signaling. 1:1000). Goat autimouse or goat anti rabbit horseradish peroxidase (1:2000 . . . 1:5,000; Santa Cruz Biotechnology) was used as a secondary antibody find incubated for 1 hour at room temperature. Specific proteins were detected by chemiluminescent methods using Amersham™ western blotting detection reagents (GE Healthcare, UK). Protein abundance on western blots was quantified densitometry using Image lab software (Bio-Rad, Hercules, CA).
smiles,measurement,setting,value
"O=C(Nc1ccccc1Cl)c1c[nH]c2ccccc12 [active agent, N-(2-chlorophenyl)-Ul-indde-3-carboxamide]",DNA methyltransferase activity,DNA methyltransferase,did not affect
same,Methylation of Klotho gene,Klotho gene,inhibited
same,Elastin production,elastin,increased
same,MMP2 activity,MMP2,decreased
same,TGF-β1 expression,TGF-β1,decreased
same,TGF-β3 expression,TGF-β3,decreased
same,RUNX2 expression,RUNX2,decreased
same,LC3 expression,LC3; aortas of old mice,did not affect
same,LC3 expression,LC3; hearts of old mice,did not affect
same,LC3 expression,LC3; kidneys of old mice,did not affect
same,MMP2 expression,[1]; Klotho free medium (KL(−)),did not affect
same,MMP9 expression,[1]; Klotho free medium (KL(−)),did not affect
same,TGFβ1 expression,[1]; Klotho free medium (KL(−)),did not affect
same,TGFβ3 expression,[1]; Klotho free medium (KL(−)),did not affect
same,MMP2 expression,[1]; regular medium,did not change
same,MMP9 expression,[1]; regular medium,did not change
same,TGFβ1 expression,[1]; regular medium,did not change
same,TGFβ3 expression,[1]; regular medium,did not change
